Earlier results, collected in patent US20050004224A1, “Treatment of Alzheimer's disease with the R(-) isomer of a 2-arylpropionic acid non-steroidal anti-inflammatory drug alone or in combination with a cyclooxygenase-2 selective inhibitor” (Pharmacia Corporation, priority 2003, published 2005).

Assays:
[1] = system: patients with osteoarthritis; conditions: Singer et al. 2000
[2] = system: murine cells; conditions: Ogawa et al. 2000
[3] = Lambat et al. 2000
[4] = system: neuronal cells; conditions: Blasko et al. 2001
[5] = system: AD models; conditions: chronic ibuprofen; some AD models; Lim et al. 2001
[6] = system: A-beta 1-42 peptide; conditions: Weggen et al. 2001
[7] = Lambat et al. 2000; remark: listed apart in the source
[8] = Asanuma et al. 2001

## CC(C)Cc1ccc([C@H](C)C(=O)O)cc1 (single isomer, unassigned) [S(+) isomer of ibuprofen]
[1]
  effective NSAID for patients with osteoarthritis: effective

## CC(=O)Oc1ccccc1C(=O)O [aspirin]
[2]
  beta-amyloid protein and interferon-gamma-induced NO production: did not produce such an effect

## CC(C)Cc1ccc(C(C)C(=O)O)cc1 (stereo not drawn) [ibuprofen, α-methyl-4-[isobutyl]phenylacetic acid]
[3]
  cyanide-induced speroxide production: reducing
[2]
  beta-amyloid protein and interferon-gamma-induced NO production: reduced
[4]
  cytokine-induced amyloid Beta production: reduced
[5]
  inflammation and plaque-related pathology: suppress
[6]
  production of the amyloidogenic A-beta 1-42 peptide: reduced
[7]
  quinolinic acid-induced lipid peroxidation: reducing

## COc1ccc2c(c1)c(CC(=O)O)c(C)n2C(=O)c1ccc(Cl)cc1 [indomethacin]
[2]
  beta-amyloid protein and interferon-gamma-induced NO production: reduced
[6]
  production of the amyloidogenic A-beta 1-42 peptide: reduced

## CC(C(=O)O)c1cccc(C(=O)c2ccccc2)c1 (stereo not drawn) [ketoprofen]
[8]
  nitric oxide-scavenging ability: have such activity

## CSc1ccc(/C=C2/C(C)=C(CC(=O)O)c3cc(F)ccc32)cc1 [sulindac sulfide]
[6]
  production of the amyloidogenic A-beta 1-42 peptide: reduced
